From patent US20160158317A1, “Antimicrobial Peptide Variants and Polynucleotides Encoding Same” (Adenium Biotech A/S, priority 2010, published 2016)
Where a SMILES comes first, the peptide text is derived from it. Bridges are numbered along the chain shown (N, C = ends).

Test: Determination of the protein binding (90% serum, 30 kDa filter, HPLC)
Format: in vitro ADME
Settings: serum
Description: Protein binding assays were performed as follows. The purified peptides were mixed with 90% serum and centrifuged through a 30 kDa filter. The ultra-filtrate and the non filtrated serum samples were quantified by HPLC measurements and the protein binding was subsequently calculated.

**Q.** With CC(C)[C@@H]1NC(=O)CNC(=O)[C@H](CC(N)=O)NC(=O)[C@H](CCCNC(=N)N)NC(=O)[C@H](Cc2ccc(O)cc2)NC(=O)[C@H](C(C)C)NC(=O)[C@@H]2CSSC[C@H](NC(=O)[C@H](C(C)C)NC(=O)[C@H](CCCNC(=N)N)NC1=O)C(=O)N[C@@H](Cc1c[nH]cn1)C(=O)N[C@@H](CCCNC(=N)N)C(=O)N[C@@H](CCCNC(=N)N)C(=O)N[C@H](C(=O)N[C@@H](CC(N)=O)C(=O)O)CSSC[C@H](NC(=O)[C@H](Cc1ccccc1)NC(=O)CN)C(=O)N[C@@H](Cc1ccc(O)cc1)C(=O)N[C@@H](CCCNC(=N)N)C(=O)N[C@@H](C(C)C)C(=O)N2 [compound 210] (H-GFCYRVCVYRNGVRVCHRRCN-OH; disulfide 3-20, 7-16 (inferred); N-terminus and C-terminus assumed) as the compound, how does the fraction unbound read?
**A.** The fraction unbound was 0.11.

**Q.** Which fraction unbound does the source give for CC(C)[C@@H]1NC(=O)CNC(=O)[C@H](CC(N)=O)NC(=O)[C@H](CCCNC(=N)N)NC(=O)[C@H](Cc2ccc(O)cc2)NC(=O)[C@H](C(C)C)NC(=O)[C@@H]2CSSC[C@H](NC(=O)[C@H](C(C)C)NC(=O)[C@H](CCCNC(=N)N)NC1=O)C(=O)N[C@@H](CO)C(=O)N[C@@H](CCCNC(=N)N)C(=O)N[C@@H](CCCNC(=N)N)C(=O)N[C@H](C(=O)N[C@@H](CC(N)=O)C(=O)O)CSSC[C@H](NC(=O)[C@H](Cc1ccccc1)NC(=O)CN)C(=O)N[C@@H](Cc1ccc(O)cc1)C(=O)N[C@@H](CCCNC(=N)N)C(=O)N[C@@H](C(C)C)C(=O)N2 [compound 211] (H-GFCYRVCVYRNGVRVCSRRCN-OH; disulfide 3-20, 7-16 (inferred); N-terminus and C-terminus assumed) here?
**A.** Its fraction unbound is 0.04.

**Q.** With CC(C)[C@@H]1NC(=O)[C@@H]2CSSC[C@H](NC(=O)[C@H](CO)NC(=O)[C@H](CCCNC(=N)N)NC(=O)[C@H](C)NC(=O)CNC(=O)[C@H](CC(N)=O)NC(=O)[C@H](CCCNC(=N)N)NC(=O)[C@H](Cc3ccc(O)cc3)NC1=O)C(=O)N[C@@H](Cc1ccc(O)cc1)C(=O)N[C@@H](CCCNC(=N)N)C(=O)N[C@@H](CCCNC(=N)N)C(=O)N[C@H](C(=O)N[C@@H](CC(N)=O)C(=O)O)CSSC[C@H](NC(=O)[C@H](Cc1ccccc1)NC(=O)CN)C(=O)N[C@@H](Cc1c[nH]c3ccccc13)C(=O)N[C@@H](Cc1c[nH]cn1)C(=O)N[C@@H](C(C)C)C(=O)N2 [compound 213] (H-GFCWHVCVYRNGARSCYRRCN-OH; disulfide 3-20, 7-16 (inferred); N-terminus and C-terminus assumed) as the compound, how does the fraction unbound read?
**A.** Its fraction unbound is 0.05.

**Q.** With CC(C)[C@@H]1NC(=O)CNC(=O)[C@H](CC(N)=O)NC(=O)[C@H](CCCNC(=N)N)NC(=O)[C@H](CCCNC(=N)N)NC(=O)[C@H](C)NC(=O)[C@@H]2CSSC[C@H](NC(=O)[C@H](C(C)C)NC(=O)[C@H](CCCNC(=N)N)NC1=O)C(=O)N[C@@H](Cc1ccc(O)cc1)C(=O)N[C@@H](CCCNC(=N)N)C(=O)N[C@@H](CCCNC(=N)N)C(=O)N[C@H](C(=O)N[C@@H](CC(N)=O)C(=O)O)CSSC[C@H](NC(=O)[C@H](Cc1ccccc1)NC(=O)CN)C(=O)N[C@@H](Cc1c[nH]c3ccccc13)C(=O)N[C@@H](Cc1c[nH]cn1)C(=O)N[C@@H](C(C)C)C(=O)N2 [compound 218] (H-GFCWHVCARRNGVRVCYRRCN-OH; disulfide 3-20, 7-16 (inferred); N-terminus and C-terminus assumed) as the compound, how does the fraction unbound read?
**A.** The fraction unbound was 0.01.

**Q.** With CC(C)[C@@H]1NC(=O)[C@H](Cc2c[nH]cn2)NC(=O)[C@H](Cc2c[nH]c3ccccc23)NC(=O)[C@@H](NC(=O)[C@H](Cc2ccccc2)NC(=O)CN)CSSC[C@@H](C(=O)N[C@@H](CC(N)=O)C(=O)O)NC(=O)[C@H](CCCNC(=N)N)NC(=O)[C@H](CCCNC(=N)N)NC(=O)[C@H](Cc2ccc(O)cc2)NC(=O)[C@@H]2CSSC[C@H](NC1=O)C(=O)N[C@@H](Cc1c[nH]cn1)C(=O)N[C@@H](Cc1ccc(O)cc1)C(=O)N[C@@H](CCCNC(=N)N)C(=O)N[C@@H](CC(N)=O)C(=O)N[C@@H](CO)C(=O)N[C@@H](C(C)C)C(=O)N[C@@H](CCCNC(=N)N)C(=O)N[C@@H](C(C)C)C(=O)N2 [compound 219] (H-GFCWHVCHYRNSVRVCYRRCN-OH; disulfide 3-20, 7-16 (inferred); N-terminus and C-terminus assumed) as the compound, how does the fraction unbound read?
**A.** Its fraction unbound is 0.01.

**Q.** For CC(C)[C@@H]1NC(=O)[C@@H]2CSSC[C@H](NC(=O)[C@H](C(C)C)NC(=O)[C@H](CCCNC(=N)N)NC(=O)[C@H](C(C)C)NC(=O)[C@H](CCCCN)NC(=O)[C@H](CC(N)=O)NC(=O)[C@H](CCCNC(=N)N)NC(=O)[C@H](Cc3ccc(O)cc3)NC1=O)C(=O)N[C@@H](Cc1c[nH]cn1)C(=O)N[C@@H](CCCNC(=N)N)C(=O)N[C@@H](CCCNC(=N)N)C(=O)N[C@H](C(=O)N[C@@H](CC(N)=O)C(=O)O)CSSC[C@H](NC(=O)[C@H](Cc1ccccc1)NC(=O)CN)C(=O)N[C@@H](Cc1c[nH]c3ccccc13)C(=O)N[C@@H](CC(N)=O)C(=O)N[C@@H](C(C)C)C(=O)N2 [compound 227] (H-GFCWNVCVYRNKVRVCHRRCN-OH; disulfide 3-20, 7-16 (inferred); N-terminus and C-terminus assumed), which fraction unbound is on record?
**A.** The fraction unbound was 0.2.

**Q.** Which fraction unbound does the source give for CC(C)[C@@H]1NC(=O)[C@@H]2CSSC[C@H](NC(=O)[C@H](C(C)C)NC(=O)[C@H](CCCNC(=N)N)NC(=O)[C@H](C(C)C)NC(=O)[C@H](CCCNC(=N)N)NC(=O)[C@H](CC(N)=O)NC(=O)[C@H](CCCNC(=N)N)NC(=O)[C@H](Cc3ccc(O)cc3)NC1=O)C(=O)N[C@@H](Cc1c[nH]cn1)C(=O)N[C@@H](CCCNC(=N)N)C(=O)N[C@@H](CCCNC(=N)N)C(=O)N[C@H](C(=O)N[C@@H](CC(N)=O)C(=O)O)CSSC[C@H](NC(=O)[C@H](Cc1ccccc1)NC(=O)CN)C(=O)N[C@@H](Cc1c[nH]c3ccccc13)C(=O)N[C@@H](CC(N)=O)C(=O)N[C@@H](C(C)C)C(=O)N2 [compound 228] (H-GFCWNVCVYRNRVRVCHRRCN-OH; disulfide 3-20, 7-16 (inferred); N-terminus and C-terminus assumed) here?
**A.** Its fraction unbound is 0.14.

**Q.** Which fraction unbound does the source give for CC(C)[C@@H]1NC(=O)[C@@H]2CSSC[C@H](NC(=O)[C@H](C(C)C)NC(=O)[C@H](CCCNC(=N)N)NC(=O)[C@H](C(C)C)NC(=O)[C@H](Cc3ccc(O)cc3)NC(=O)[C@H](CC(N)=O)NC(=O)[C@H](CCCNC(=N)N)NC(=O)[C@H](Cc3ccc(O)cc3)NC1=O)C(=O)N[C@@H](Cc1c[nH]cn1)C(=O)N[C@@H](CCCNC(=N)N)C(=O)N[C@@H](CCCNC(=N)N)C(=O)N[C@H](C(=O)N[C@@H](CC(N)=O)C(=O)O)CSSC[C@H](NC(=O)[C@H](Cc1ccccc1)NC(=O)CN)C(=O)N[C@@H](Cc1c[nH]c3ccccc13)C(=O)N[C@@H](CC(N)=O)C(=O)N[C@@H](C(C)C)C(=O)N2 [compound 229] (H-GFCWNVCVYRNYVRVCHRRCN-OH; disulfide 3-20, 7-16 (inferred); N-terminus and C-terminus assumed) here?
**A.** The fraction unbound was 0.09.

**Q.** Which fraction unbound does the source give for CC(C)[C@@H]1NC(=O)CNC(=O)[C@H](C)NC(=O)[C@H](CCCNC(=N)N)NC(=O)[C@H](Cc2ccc(O)cc2)NC(=O)[C@H](C(C)C)NC(=O)[C@@H]2CSSC[C@H](NC(=O)[C@H](C(C)C)NC(=O)[C@H](CCCNC(=N)N)NC1=O)C(=O)N[C@@H](Cc1c[nH]cn1)C(=O)N[C@@H](CCCNC(=N)N)C(=O)N[C@@H](CCCNC(=N)N)C(=O)N[C@H](C(=O)N[C@@H](CC(N)=O)C(=O)O)CSSC[C@H](NC(=O)[C@H](Cc1ccccc1)NC(=O)CN)C(=O)N[C@@H](Cc1c[nH]c3ccccc13)C(=O)N[C@@H](CC(N)=O)C(=O)N[C@@H](C(C)C)C(=O)N2 [compound 230] (H-GFCWNVCVYRAGVRVCHRRCN-OH; disulfide 3-20, 7-16 (inferred); N-terminus and C-terminus assumed) here?
**A.** The fraction unbound was 0.29.

**Q.** For CC(C)[C@@H]1NC(=O)CNC(=O)CNC(=O)[C@H](CCCNC(=N)N)NC(=O)[C@H](Cc2ccc(O)cc2)NC(=O)[C@H](C(C)C)NC(=O)[C@@H]2CSSC[C@H](NC(=O)[C@H](C(C)C)NC(=O)[C@H](CCCNC(=N)N)NC1=O)C(=O)N[C@@H](Cc1c[nH]cn1)C(=O)N[C@@H](CCCNC(=N)N)C(=O)N[C@@H](CCCNC(=N)N)C(=O)N[C@H](C(=O)N[C@@H](CC(N)=O)C(=O)O)CSSC[C@H](NC(=O)[C@H](Cc1ccccc1)NC(=O)CN)C(=O)N[C@@H](Cc1c[nH]c3ccccc13)C(=O)N[C@@H](CC(N)=O)C(=O)N[C@@H](C(C)C)C(=O)N2 [compound 231] (H-GFCWNVCVYRGGVRVCHRRCN-OH; disulfide 3-20, 7-16 (inferred); N-terminus and C-terminus assumed), which fraction unbound is on record?
**A.** Its fraction unbound is 0.34.

**Q.** Which fraction unbound does the source give for CC(C)[C@@H]1NC(=O)CNC(=O)[C@H](Cc2c[nH]cn2)NC(=O)[C@H](CCCNC(=N)N)NC(=O)[C@H](Cc2ccc(O)cc2)NC(=O)[C@H](C(C)C)NC(=O)[C@@H]2CSSC[C@H](NC(=O)[C@H](C(C)C)NC(=O)[C@H](CCCNC(=N)N)NC1=O)C(=O)N[C@@H](Cc1c[nH]cn1)C(=O)N[C@@H](CCCNC(=N)N)C(=O)N[C@@H](CCCNC(=N)N)C(=O)N[C@H](C(=O)N[C@@H](CC(N)=O)C(=O)O)CSSC[C@H](NC(=O)[C@H](Cc1ccccc1)NC(=O)CN)C(=O)N[C@@H](Cc1c[nH]c3ccccc13)C(=O)N[C@@H](CC(N)=O)C(=O)N[C@@H](C(C)C)C(=O)N2 [compound 232] (H-GFCWNVCVYRHGVRVCHRRCN-OH; disulfide 3-20, 7-16 (inferred); N-terminus and C-terminus assumed) here?
**A.** Its fraction unbound is 0.15.

**Q.** With CC(C)[C@@H]1NC(=O)CNC(=O)[C@H](CCC(N)=O)NC(=O)[C@H](CCCNC(=N)N)NC(=O)[C@H](Cc2ccc(O)cc2)NC(=O)[C@H](C(C)C)NC(=O)[C@@H]2CSSC[C@H](NC(=O)[C@H](C(C)C)NC(=O)[C@H](CCCNC(=N)N)NC1=O)C(=O)N[C@@H](Cc1c[nH]cn1)C(=O)N[C@@H](CCCNC(=N)N)C(=O)N[C@@H](CCCNC(=N)N)C(=O)N[C@H](C(=O)N[C@@H](CC(N)=O)C(=O)O)CSSC[C@H](NC(=O)[C@H](Cc1ccccc1)NC(=O)CN)C(=O)N[C@@H](Cc1c[nH]c3ccccc13)C(=O)N[C@@H](CC(N)=O)C(=O)N[C@@H](C(C)C)C(=O)N2 [compound 233] (H-GFCWNVCVYRQGVRVCHRRCN-OH; disulfide 3-20, 7-16 (inferred); N-terminus and C-terminus assumed) as the compound, how does the fraction unbound read?
**A.** Its fraction unbound is 0.22.
